Measurements published in ChEMBL document CHEMBL2311347, “The discovery of fused oxadiazepines as gamma secretase modulators for treatment of Alzheimer's disease” (Bioorg Med Chem Lett, 2013).

Tests used:
[1] = target: hERG (Homo sapiens, UniProt Q12809); experiment: Inhibition of human ERG at 10 uM
[2] = target: Gamma-secretase (Homo sapiens) (UniProt Q96BI3+Q9NZ42+Q8WW43+P49768+Q92542+P49810); experiment: Inhibition of gamma secretase (unknown origin) assessed as ratio of Abeta to Abeta42 level; assay type: protein-complex assay
[3] = target: Gamma-secretase; experiment: Inhibition of gamma secretase (unknown origin) assessed as reduction of Abeta42 production; assay type: protein-complex assay, Homo sapiens
[4] = test system: Rattus norvegicus; experiment: Antialzheimer's disease activity in rat assessed as reduction in Abeta42 level at 10 mg/kg, po measured after 3 hrs post dose; assay type: functional
[5] = target: T1, Nuclear receptor subfamily 1 group I member 2 (Homo sapiens, UniProt O75469); experiment: Activation of PXR (unknown origin) assessed as induction of CYP2B1/2 expression up to 30 uM relative to untreated control; assay type: ADME
T1 sequence (O75469 whole entry): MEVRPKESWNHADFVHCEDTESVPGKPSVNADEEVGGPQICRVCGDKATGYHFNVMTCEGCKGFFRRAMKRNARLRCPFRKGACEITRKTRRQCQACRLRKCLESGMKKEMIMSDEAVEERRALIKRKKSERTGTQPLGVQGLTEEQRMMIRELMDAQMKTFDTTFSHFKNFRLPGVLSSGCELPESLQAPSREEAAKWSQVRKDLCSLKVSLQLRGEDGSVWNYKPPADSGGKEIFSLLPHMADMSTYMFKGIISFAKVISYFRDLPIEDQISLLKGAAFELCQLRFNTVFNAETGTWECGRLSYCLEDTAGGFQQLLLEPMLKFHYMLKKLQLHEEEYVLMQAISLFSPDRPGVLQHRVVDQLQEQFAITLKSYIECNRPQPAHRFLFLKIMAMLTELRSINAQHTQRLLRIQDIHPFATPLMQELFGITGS

[6] = target: T1, Nuclear receptor subfamily 1 group I member 2; experiment: Activation of PXR (unknown origin) assessed as induction of CYP3A1 expression up to 30 uM relative to untreated control; assay type: ADME
[7] = target: T1, Nuclear receptor subfamily 1 group I member 2; experiment: Activation of PXR (unknown origin) assessed as induction of CYP1A1 expression up to 30 uM relative to untreated control; assay type: ADME
[8] = target: Cytochrome P450 2C9 (Homo sapiens, UniProt P11712); experiment: Inhibition of CYP2C9 (unknown origin); assay type: ADME
[9] = target: Cytochrome P450 3A4 (Homo sapiens, UniProt P08684); experiment: Inhibition of CYP3A4 (unknown origin); assay type: ADME
[10] = target: Cytochrome P450 2D6 (Homo sapiens, UniProt P10635); experiment: Inhibition of CYP2D6 (unknown origin); assay type: ADME
[11] = Ratio of drug level in brain to plasma in rat at 10 mg/kg, po measured after 6 hrs post dose; assay type: ADME, organism-based; set-up: dose 10 mg/kg, route oral; settings: read-out: BPR
[12] = Drug level in rat brain at 10 mg/kg, po measured after 6 hrs post dose; assay type: ADME, organism-based; set-up: dose 10 mg/kg, route oral; settings: read-out: Drug uptake
[13] = AUC in rat at 10 mg/kg, po measured after 6 hrs post dose; assay type: ADME, organism-based; set-up: time < 6 hr, dose 10 mg/kg, route oral; settings: plasma
[14] = test system: Rattus norvegicus; experiment: Antialzheimer's disease activity in rat assessed as reduction in Abeta42 level at 3 mg/kg, po measured after 3 hrs post dose; assay type: functional
[15] = test system: Rattus norvegicus; experiment: Antialzheimer's disease activity in rat assessed as reduction in Abeta42 level at 30 mg/kg, po measured after 3 hrs post dose; assay type: functional
[16] = test system: Rattus norvegicus; experiment: Antialzheimer's disease activity in po dosed rat assessed as reduction in Abeta42 level measured after 3 hrs post dose; assay type: functional, organism-based

Chain of hERG (Q12809 whole entry): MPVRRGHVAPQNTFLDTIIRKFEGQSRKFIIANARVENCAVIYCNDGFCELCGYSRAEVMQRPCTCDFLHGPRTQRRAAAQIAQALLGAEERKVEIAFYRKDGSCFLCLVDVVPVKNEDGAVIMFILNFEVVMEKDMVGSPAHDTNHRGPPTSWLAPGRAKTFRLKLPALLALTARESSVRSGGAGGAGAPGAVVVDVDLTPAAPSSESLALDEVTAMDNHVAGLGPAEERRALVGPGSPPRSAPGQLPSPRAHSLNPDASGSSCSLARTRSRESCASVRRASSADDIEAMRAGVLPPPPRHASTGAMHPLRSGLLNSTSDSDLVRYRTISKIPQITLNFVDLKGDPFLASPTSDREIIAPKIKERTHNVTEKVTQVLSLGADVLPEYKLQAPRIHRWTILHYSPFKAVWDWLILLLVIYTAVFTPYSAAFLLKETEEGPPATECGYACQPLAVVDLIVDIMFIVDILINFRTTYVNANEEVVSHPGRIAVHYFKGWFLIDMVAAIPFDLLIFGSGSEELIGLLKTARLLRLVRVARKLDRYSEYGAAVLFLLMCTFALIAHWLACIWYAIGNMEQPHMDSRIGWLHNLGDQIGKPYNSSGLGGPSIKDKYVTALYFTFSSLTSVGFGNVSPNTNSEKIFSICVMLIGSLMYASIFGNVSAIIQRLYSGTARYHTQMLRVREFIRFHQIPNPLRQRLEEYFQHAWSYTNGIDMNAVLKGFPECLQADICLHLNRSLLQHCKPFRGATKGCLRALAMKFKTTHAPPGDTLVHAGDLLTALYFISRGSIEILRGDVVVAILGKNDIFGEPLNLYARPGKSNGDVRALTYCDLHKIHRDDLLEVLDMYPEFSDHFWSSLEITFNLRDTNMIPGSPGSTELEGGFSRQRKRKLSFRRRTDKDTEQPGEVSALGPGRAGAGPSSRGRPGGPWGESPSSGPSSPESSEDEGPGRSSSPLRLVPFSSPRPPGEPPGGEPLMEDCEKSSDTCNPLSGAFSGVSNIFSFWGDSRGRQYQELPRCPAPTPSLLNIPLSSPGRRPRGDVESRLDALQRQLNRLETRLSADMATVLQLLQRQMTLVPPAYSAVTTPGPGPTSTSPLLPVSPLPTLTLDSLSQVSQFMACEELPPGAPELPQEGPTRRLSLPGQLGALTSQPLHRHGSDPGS
Chain of Cytochrome P450 3A4 (P08684 whole entry): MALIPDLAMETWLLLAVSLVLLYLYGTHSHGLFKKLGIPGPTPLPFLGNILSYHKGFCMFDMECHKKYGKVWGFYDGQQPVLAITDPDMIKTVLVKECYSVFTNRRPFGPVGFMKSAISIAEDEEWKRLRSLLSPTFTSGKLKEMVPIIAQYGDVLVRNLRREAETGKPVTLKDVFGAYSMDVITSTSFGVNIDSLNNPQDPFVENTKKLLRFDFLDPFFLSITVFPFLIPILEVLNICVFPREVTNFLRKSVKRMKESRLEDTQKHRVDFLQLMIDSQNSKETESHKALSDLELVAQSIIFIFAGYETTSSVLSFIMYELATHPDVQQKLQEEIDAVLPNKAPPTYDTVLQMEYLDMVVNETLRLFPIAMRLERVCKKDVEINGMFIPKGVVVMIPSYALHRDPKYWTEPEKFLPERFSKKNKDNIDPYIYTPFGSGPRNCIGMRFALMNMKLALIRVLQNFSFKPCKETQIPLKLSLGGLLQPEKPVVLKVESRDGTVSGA
Chain of Cytochrome P450 2D6 (P10635 whole entry): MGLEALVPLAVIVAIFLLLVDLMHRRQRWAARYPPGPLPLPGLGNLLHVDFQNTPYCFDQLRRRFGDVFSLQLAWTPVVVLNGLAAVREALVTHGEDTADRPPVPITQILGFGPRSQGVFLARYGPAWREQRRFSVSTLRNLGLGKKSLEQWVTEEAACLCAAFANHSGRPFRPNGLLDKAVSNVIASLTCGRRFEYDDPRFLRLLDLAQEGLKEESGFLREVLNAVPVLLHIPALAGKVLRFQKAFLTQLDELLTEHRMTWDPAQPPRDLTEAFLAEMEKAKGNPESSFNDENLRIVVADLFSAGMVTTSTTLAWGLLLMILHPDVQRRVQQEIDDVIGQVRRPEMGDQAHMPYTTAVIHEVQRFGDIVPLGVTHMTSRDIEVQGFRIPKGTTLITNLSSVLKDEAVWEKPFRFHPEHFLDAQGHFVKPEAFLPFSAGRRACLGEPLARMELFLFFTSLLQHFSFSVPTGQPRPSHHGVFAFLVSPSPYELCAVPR
Chain of Cytochrome P450 2C9 (P11712 whole entry): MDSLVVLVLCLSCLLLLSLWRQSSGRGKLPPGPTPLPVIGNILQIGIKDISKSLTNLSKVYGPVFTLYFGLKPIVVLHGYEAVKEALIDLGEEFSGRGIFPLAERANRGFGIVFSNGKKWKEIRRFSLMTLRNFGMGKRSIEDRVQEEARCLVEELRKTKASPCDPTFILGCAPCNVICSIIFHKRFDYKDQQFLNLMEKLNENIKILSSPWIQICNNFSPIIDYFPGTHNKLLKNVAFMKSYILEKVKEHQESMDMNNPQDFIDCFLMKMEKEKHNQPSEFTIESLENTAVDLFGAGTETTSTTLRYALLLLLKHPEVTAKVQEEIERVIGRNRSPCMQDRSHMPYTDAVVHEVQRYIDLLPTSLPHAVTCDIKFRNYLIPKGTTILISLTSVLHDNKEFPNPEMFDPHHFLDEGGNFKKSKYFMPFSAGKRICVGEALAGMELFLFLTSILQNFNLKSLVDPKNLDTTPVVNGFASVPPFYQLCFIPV

Structure (SMILES)	inhibition at 10 µM [1] [%]	Ratio [2]	IC50 [3] [µM]	inhibition in vivo at 10 mg/kg [4] [%]	other results
COc1cc(/C=C2\CCCN3CCC(c4cc(F)cc(Cl)c4)ON=C23)ccc1-n1cnc(C)c1 (configuration not stated)	61	262	0.064		
COc1cc(/C=C2\CCCCN3C2=NOC[C@@H]3c2ccc(F)cc2)ccc1-n1cnc(C)c1		35	0.58		
COc1cc(/C=C2\CCCN3C2=NOC[C@@H](O)[C@@H]3c2cc(F)cc(F)c2)ccc1-n1cnc(C)c1	55	83	0.24		
COc1cc(/C=C2\CCCN3CCC(c4cc(F)c(F)c(F)c4)ON=C23)ccc1-n1cnc(C)c1 (configuration not stated)	89	364	0.053		
COc1cc(/C=C2\CCCN3C2=NOCC[C@@H]3c2cc(F)cc(Cl)c2)ccc1-n1cnc(C)c1	53	480	0.016	59	
COc1cc(/C=C2\CCCN3CCC(c4ccccc4)ON=C23)ccc1-n1cnc(C)c1 (configuration not stated)	93	489	0.041		
COc1cc(/C=C2\CCCN3C2=NOCC[C@@H]3c2ccc(F)cc2F)ccc1-n1cnc(C)c1		354	0.052	23	
COc1cc(/C=C2\CCCN3CCC(c4cc(F)cc(F)c4)ON=C23)ccc1-n1cnc(C)c1 (configuration not stated)		371	0.041		
COc1cc(/C=C2\CCCN3C2=NOCC[C@@H]3c2ccc(F)cc2)ccc1-n1cnc(C)c1	81	409	0.049	40	
COc1cc(/C=C2\CCCN3C2=NOCC[C@@H]3c2cc(F)cc(F)c2)ccc1-n1cnc(C)c1	49	392	0.037	39	
COc1cc(/C=C2\CCCCN3C2=NOC[C@@H]3c2cc(F)c(F)c(F)c2)ccc1-n1cnc(C)c1		32	0.088		
COc1cc(/C=C2\CCCN3CCC(c4ccc(F)cc4)ON=C23)ccc1-n1cnc(C)c1 (configuration not stated)	93	465	0.043		
COc1cc(/C=C2\CCCN3C2=NOC(C)CC3c2cc(F)c(F)c(F)c2)ccc1-n1cnc(C)c1 (mixture of isomers)		480	0.041		
COc1cc(/C=C2\CCCN3C2=NOCC[C@@H]3c2ccc(F)c(F)c2)ccc1-n1cnc(C)c1	56	466	0.024	48	
COc1cc(/C=C2\CCCN3C2=NOCC[C@@H]3c2cccc(F)c2)ccc1-n1cnc(C)c1	86	572	0.035		
COc1cc(/C=C2\CCCN3CC(c4ccccc4)CON=C23)ccc1-n1cnc(C)c1 (configuration not stated)		140	0.14		
COc1cc(/C=C2\CCCN3C2=NOCC[C@@H]3c2ccc(F)c(Cl)c2)ccc1-n1cnc(C)c1	39	340	0.04	38	
COc1cc(/C=C2\CCCN3C2=NOC[C@@H]3c2cc(F)c(F)c(F)c2)ccc1-n1cnc(C)c1		607			
COc1cc(/C=C2\CCCN3C2=NOCC[C@@H]3c2cc(F)c(F)c(F)c2)ccc1-n1cnc(C)c1	33	510	0.039	61	Activity [5]: 0%; Activity [6]: 0%; Activity [7]: 2%; IC50 [8]: > 30 µM; IC50 [9]: > 30 µM; IC50 [10]: > 30 µM; Kp at 6 h [11]: 3.2; concentration at 6 h [12]: 1800 ng/g; AUC at 6 h [13]: 15.8 µM·h; inhibition in vivo at 3 mg/kg [14]: 43%; inhibition in vivo at 30 mg/kg [15]: 78%; inhibition [16]: Dose-dependent effect
COc1cc(/C=C2\CCCN3C2=NOCC[C@@H]3c2ccc(Cl)c(F)c2)ccc1-n1cnc(C)c1		210	0.095	57	
COc1cc(/C=C2\CCCN3CC(c4ccc(F)cc4)CON=C23)ccc1-n1cnc(C)c1 (configuration not stated)	90	150	0.13		
CCCO[C@@H]1CON=C2/C(=C/c3ccc(-n4cnc(C)c4)c(OC)c3)CCCN2[C@H]1c1cc(F)cc(F)c1	42	16	1.26		
